The nature of the assay: Compound was tested for binding affinity towards cytosolic aminopeptidase.

The term Ki denotes the dissociation constant of the complex between target and ligand, obtained from inhibition or displacement.

As to `CC(=O)[C@@H](N)CC(C)C`, the Ki was > 600 µM.

Source of the values: BindingDB's records for doi:10.1021/jm00081a005 (University of Wisconsin-Madison, 1992).
